From patent EP0778023B1, “Product comprising rapamycin or particular derivatives and an NMDA or AMPA antagonist for use for the treatment of epilepsy or Huntington's Disease, and the use of rapamycin or particular derivatives for the manufacture of a medicament for the treatment of epilepsy or Huntington's Disease” (Wyeth, priority 1995, dated 1997)

Key:
Cortical neurons = assay: ischemia induced neurotoxicity in cortical cultures with NMDA and AMPA inhibitors, LDH activity; assay type: cell-based, rat; settings: 1 week old cortical cell cultures
Procedure: (§1) Briefly, rat hippocampal and cortical cultures were prepared according to the method of Furshpan and Potter with some modifications. [Neuron 3:199 (1989)]. Brains were removed from newborn Long Evans pups anesthetized with an injection of 0.1 ml of 20% chloral hydrate. The hippocampi were dissected out and separated from the rest of the cortex. Both tissues were enzymatically digested in 5 ml Earle's Balanced Salt Solution (EBSS) containing 20 u/ml papain, 1 mM L-cysteine, and 0.5 mM EDTA for 30 minutes at 37°C with gentle rocking. The hippocampi and cortical tissues were then washed once with EBSS and the digestion was stopped by incubating at 37°C for 30 minutes with 3-5 mis of inhibitor solution containing 1 mg/ml ovomucoid and 1 mg/ml albumin in EBSS. The digested hippocampi and cortical tissues were washed twice with DME without L-glutamine with 4.5 g/L dextrose before being triturated in 2 ml of DME supplemented with 5% fetal calf serum, 5% rat serum, 50 u/ml penicillin, 0.05 mg/ml streptomycin and MlTO+ serum extender [a medium supplement from Collaborative Biomedical Products] (10% DME). After 50 triturations, undissociated tissue was allowed to settle and the dissociated cell suspension was removed. A fresh 2 ml of 10% DME was added to the remaining tissue and the trituration was repeated. The two cell suspension aliquots were pooled and the cell density was determined with a hemacytometer.
(§2) 30,000 hippocampal cells in 150 µL were plated per well in 96-well plates and incubated at 37°C in 5% CO2. Cortical cells were plated at a density of 500,000 cells per well in 24-well plates. When glia cells were confluent (after approximately 3 days), 4-10 µM cytosine β-D-arabinofuranoside was added to each well to prevent further proliferation. One week after plating, the medium was removed and replaced with DME supplemented with 2.5% fetal calf serum, 2.5% rat serum, 50 u/ml penicillin, 0.05 mg/ml streptomycin, MITO+, 1 mM kynurenate and 10 mM MgCl2 (5% DME + KM). Kynurenate is a nonspecific blocker of glutamate receptors and elevated levels of magnesium block calcium and sodium influx through NMDA receptor channels. The addition of KM prevents neurotoxicity that occurs with glutamate found in serum, and allows neurons to be maintained in culture for up to several months. The cells were fed weekly by exchanging half the medium with fresh 5% DME + KM.
Cortical neurons were washed six times with DME without glucose that has been deoxygenated by bubbling the medium with 95% N2/5% CO2 for at least 10 minutes, to induce an ischemic state that will cause neuronal cell death that can be observed by measuring lactate dehydrogenase levels, as the amount of LDH activity in each well is directly correlated with the number of dead cells. 100 µM [2-(8,9-Dioxo-2,6-diazabicyclo[5.2.0]non-1(7)-en-2-yl)-ethyl]-phosphonic acid (disclosed in U.S. Patent 5,168,103 and 10 µM YM90K were added to certain wells to block NMDA and AMPA glutamate receptors, respectively. To test wells, 1 µM of the compound of Example 1 was added. Control wells were washed with normal DME with glucose and 100 µM [2-(8,9-dioxo-2,6-diazabicyclo[5.2.0]non-1(7)-en-2-yl)ethyl]phosphonic acid. 5 µL samples were taken from each well at different time points following ischemia and the LDH activity in those samples was determined by adding 250 µL of 2 mg NADH/25 mL phosphate buffer to each sample. After incubating for 20-30 minutes, 10 µL of 22.7 mM pyruvate was added and the optical density (OD) at 340 nm read. The change in optical density with time (mOD/min) reflects the amount of LDH in the sample. Higher optical density changes means more LDH activity indicating more cell death. Samples were taken from 4-8 wells per condition and the average and standard deviation for each condition and time point determined.

[1] = test system: rat hippocampal and cortical cultures (hippocampal neurons); assay: glutamate induced toxicity in hippocampal cultures, count of live neurons; assay type: cell-based; settings: 30 µM glutamate
Procedure: as §1, §2
The compound to be evaluated was dissolved in DMSO to make 10 mM stock solutions and stored in aliquots at -80°C. Just before each procedure was carried out, aliquots of the stock solutions were thawed and diluted in DME or Hanks' Balanced Salt Solution (HBSS) containing 44 mM sodium bicarbonate, 10 mM glucose, and 30 µM glutamate to obtain test concentrations from 1 nM to 10 µM.
After 4-12 weeks in culture, hippocampal cells were washed three times and fed with test compound in HBSS, or serum free DME (SF DME) and 30 to 150 µM glutamate. At least three wells in every test procedure were treated with each drug concentration. 30 µM Glutamate kills 70-80% of the neurons in younger cultures, and more in older cultures. The toxicity induced by 30 µM glutamate was blocked by 1 mM kynurenate + 10 mM MgCl2 (KM).
Following overnight incubation at 37°C, the number of live hippocampal neurons remaining in five fields, representing the north, south, east, and west extremes and the center of each well, were counted. Each field was visualized through a 10x objective with a 15x eyepiece and was approximately 1.54 mm^2 in area. Conditions were generally done in triplicate. The mean number of neurons per well and the standard deviation for each condition were calculated. The mean number of neurons remaining in the control 30 µM glutamate condition reflects those that were not sensitive to glutamate toxicity.

[2] = Time 8 hours, test compound administered with the NMDA and AMPA inhibitors
[3] = Time 13 hours, with the NMDA and AMPA inhibitors
[4] = Time 24 hours, with the NMDA and AMPA inhibitors
[5] = Time 30 hours, with the NMDA and AMPA inhibitors
[6] = 2 nM test compound, HBSS, overnight incubation
[7] = 20 nM test compound, HBSS, overnight incubation
[8] = 200 nM test compound, HBSS, overnight incubation

Compound	LDH Activity (Cortical neurons; [2])	LDH Activity (Cortical neurons; [3])	LDH Activity (Cortical neurons; [4])	LDH Activity (Cortical neurons; [5])	No. Neurons Alive [1, 6]	No. Neurons Alive ([1]; 10nM test compound, SF DME, overnight incubation, mean per well (five fields))	No. Neurons Alive [1, 7]	No. Neurons Alive ([1]; 100nM test compound, SF DME, overnight incubation)	No. Neurons Alive [1, 8]	No. Neurons Alive ([1]; 1µM test compound, SF DME, overnight incubation)	No. Neurons Alive ([1]; 10µM test compound, SF DME, overnight incubation)	No. Neurons Alive ([1]; 1 mM, HBSS, overnight incubation (second table))	No. Neurons Alive ([1]; 1 mM, SF DME, overnight incubation (first table))
CO[C@H]1C[C@@H]2CC[C@@H](C)[C@@](O)(O2)C(=O)C(=O)N2CCCC[C@H]2C(=O)O[C@H]([C@H](C)C[C@@H]2CC[C@@H](O)[C@H](OC)C2)CC(=O)[C@H](C)/C=C(\C)[C@@H](O)[C@@H](OC)C(=O)[C@H](C)C[C@H](C)/C=C/C=C/C=C/1C [Example 1, Rapamycin]	1.04 mOD/min	3.08 mOD/min	9.00 mOD/min	14.02 mOD/min	63	114	71	92	229	46	47		
CO[C@H]1C[C@@H]2CC[C@@H](C)[C@@](O)(O2)C(=O)C(=O)N2CCCC[C@H]2C(=O)O[C@H]([C@H](C)C[C@@H]2CC[C@@H](OS(=O)(=O)c3ccc(N=Nc4ccc(N(C)C)cc4)cc3)[C@H](OC)C2)CC(=O)[C@H](C)/C=C(\C)[C@@H](O)[C@@H](OC)C(=O)[C@H](C)C[C@H](C)/C=C/C=C/C=C/1C [Example 3, Rapamycin 42-ester with 4-[[4-(dimethylamino)phenyl]azo]benzenesulfonic acid]	0.84 mOD/min	2.36 mOD/min	7.03 mOD/min	11.25 mOD/min	98		285		241				
O=C(O)c1cc(O)c2ccccc2n1 [Kynurenate, kynurenate, reference compound]												202	82
Rapamycin 1,3, Diels Alder adduct with Phenyltriazolinedione [Example 2]	1.08 mOD/min	2.31 mOD/min	7.69 mOD/min	12.43 mOD/min	110		180		127				
Rapamycin 1,3-Diels Alder adduct with methyltriazolinedione [Example 4]	0.91 mOD/min	2.54 mOD/min	8.21 mOD/min	13.31 mOD/min	117		130		157				
Rapamycin-O-benzyl-27-oxime [Example 5]	0.74 mOD/min	1.65 mOD/min	4.82 mOD/min	8.83 mOD/min	131		96		135				
